Test results taken from BindingDB's records for doi:10.1016/s0960-894x(02)00627-3 (Keio University, 2002).
pIC50, pKi: −log10 of the molar value.

Tests used:
[1] = molecular target: alpha-L-fucosidase (Bos taurus); assay: Binding affinity against alpha-L-fucosidase in bovine kidney was determined
[2] = molecular target: alpha-L-fucosidase (Bos taurus); assay: Inhibition of bovine kidney alpha-L-fucosidase
[3] = molecular target: alpha-L-fucosidase (Bos taurus); assay: Binding affinity against alpha-L-fucosidase in bovine kidney was determined; remark: listed apart in the source

SMILES	pKi [1]	pIC50 [2]	pKi [3]
CCNC1CC(C)C(O)C(O)C1O [(1R,2S,3S)-4-Ethylamino-6-methyl-cyclohexane-1,2,3-triol]	6.74	4.68	–
CC1CC2N=C(Nc3ccccc3)OC2C(O)C1O [(6R,7S,7aS)-5-Methyl-2-phenylamino-3a,4,5,6,7,7a-hexahydro-benzooxazole-6,7-diol]	–	5.12	–
CC1CC(NCCc2ccccc2)C(O)C(O)C1O [(1S,2S,3R)-4-Methyl-6-phenethylamino-cyclohexane-1,2,3-triol]	7.49	6.62	–
CCCCNC1CC(C)C(O)C(O)C1O [(1R,2S,3S)-4-Butylamino-6-methyl-cyclohexane-1,2,3-triol]	7.13	6.04	–
CC1CC(NCc2ccccc2)C(O)C(O)C1O [(1R,2S,3S)-4-Benzylamino-6-methyl-cyclohexane-1,2,3-triol]	–	6.00	7.16
CC1CC2N=C(NCc3ccccc3)OC2C(O)C1O [(6R,7S,7aS)-2-Benzylamino-5-methyl-3a,4,5,6,7,7a-hexahydro-benzooxazole-6,7-diol]	–	4.14	–
CCCCCCCNC1CC(C)C(O)C(O)C1O [(1R,2S,3S)-4-Heptylamino-6-methyl-cyclohexane-1,2,3-triol]	7.32	6.57	–
CCCCNC1=NC2CC(C)C(O)C(O)C2O1 [(6R,7S,7aS)-2-Butylamino-5-methyl-3a,4,5,6,7,7a-hexahydro-benzooxazole-6,7-diol]	–	3.85	–
CCCCCCCCCNC1CC(C)C(O)C(O)C1O [(1S,2S,3R)-4-Methyl-6-nonylamino-cyclohexane-1,2,3-triol]	6.96	6.62	–
